The values that follow come from patent publication US9604932B2 (priority 2013, dated 2017).

Each structure is given as a SMILES string.

For series [1] the following is noted: cited from earlier work.
Series [2] can be described thus: Plasma pharmacokinetics in sheep (release of R-100 from R-107), LCMS. Conditions: IV R-100 20 mg/kg bolus. The format is in vivo. The method, then:
In the following two experiments, the pharmacokinetic of releasing R-100 from R-107, via R-105 that is the reduced form of R-100, was studied in vivo according to the protocol described herein.
100 μl aliquots plasma obtained from R-107-treated sheep or pig were thawed and 200 μl ice-cold ethanol was added to each 100 μl sample to precipitate protein. Samples were then vortexed, placed on ice for 10 minutes, and then spun down at room temperature for 15 minutes. A first 100 μl supernatant from each spun sample was withdrawn and placed in a labeled HPLC micro vial to which 300 μl MPA (LC mobile phase A) was added, and the vial contents were then mixed and submitted for LCMS analysis (kept at 4° C.). The concentration of R-107 was measured in this sample as was the concentration of R105. A second 100 μl supernatant from each spun sample was added to a labelled HPLC micro vial to which 300 μl MPA and 2 μl of Reducing solution (ascorbic acid, 1.0 mg/ml in water) were added. These vials were vortexed; incubated at 50° C. for 1 hour with gentle shaking; and were then cooled to 4° C. and submitted for LCMS analysis. This sample was analyzed for R105, i.e., reduced form of R-100, and the amount measured thus represents the sum of R-100 and R-105 originally present in the plasma. The concentration of R-100 can be calculated from that of the R-105 in the second sample minus that of R-105 in the first sample. However, the concentrations of R-105 were seen to be low (approximately 10% or less of those of R-100) and so the results reported below as R-100 are not corrected for R-105.
Sets of standards (R-100, R-105 and R-107) were prepared by spiking individually in pig plasma. 100 μl aliquots of these spiked plasma samples, after thawing, were included in the above extraction protocol.
Analysis method were carried out with an Agilent HPLC stack, with column eluate directed, via a diverter valve, into the source of an AB Sciex ‘Qstar Elite’ Hybrid TOF, high-resolution mass spectrometer. LC column: Phenomenex Kinetex C18 2.6u 100A, 2.1×50 mm. LC mobile phase A: H2O with 0.02% trifluoroacetic acid (TFA), 0.1% formic acid (HOF); Phase B: acetonitrile (ACN) with 0.02% TFA, 0.1% HOF. Mobile phase flow rate=500 μl/min. Injection size: 8 μl, via Agilent 1100 u-WPS autosampler. […]

On to `CC1(C)CC(CO[N+](=O)[O-])C(C)(C)N1[O]` (centres unmarked) [R-100, 3-nitratomethyl-2,2,5,5-tetramethylpyrrolidinyloxy, reference compound], for which, in series [1], the “Solubility in organic solvents” value is “soluble in certain organic solvents such as dimethyl sulfoxide (DMSO)”. Besides, the Solubility in water result in series [1] is reported as “highly insoluble in water”. Further, the R-100 in plasma was 0 µg/mL in series [2] (0 hrs post dose); 6.72 µg/mL in series [2] (0.08 hrs post dose); 6.11 µg/mL in series [2] (0.17 hrs post dose); 5.31 µg/mL in series [2] (0.25 hrs post dose); 2.72 µg/mL in series [2] (0.5 hrs post dose); 1.63 µg/mL in series [2] (1 hrs post dose). The R-100 in plasma is 0.7 µg/mL in series [2] (2 hrs post dose), 0.28 µg/mL in series [2] (4 hrs post dose) and 0.03 µg/mL in series [2] (8 hrs post dose).
